In brackets after ≈: the same amount, converted by molar mass. Read-outs that look alike come from different tables or passages of the source.
Columns and labels:
[1] = test system: S. pneumoniae AUCC479, macrolide & penicillin sensitive; experiment: Minimum inhibitory concentration (MIC), broth microdilution, AUCC479; format: cell-based, Streptococcus pneumoniae
Experimental: (§1) Protocols for Determining Minimum Inhibitory Concentration (MIC) of Test Compounds Against Streptococcus Pneumoniae Strains
(§2) The test strains are revived from frozen stock on blood agar plates and incubated at 35±2° C. for 18-20 hours in 5% CO2. Colonies are directly suspended from an overnight grown agar culture in CAMHB/saline and optical density adjusted to 0.5 McFarland turbidity standard (1-2×10^8 cfu/mL). Adjusted cultures are further diluted 1:100 using CAMHB such that after inoculation each well finally contains ˜5×10^5 cfu/mL. For broth dilution testing of Streptococcus species, CAMHB is supplemented with 2.5-5% v/v LHB. Colony counts of inoculum suspension is estimated by ten-fold serial dilutions and plating each dilution on agar plate. After incubation, the plates are observed for growth and microbial counts determined.
(§3) Compounds are weighed and dissolved in water/DMSO/other solvent to yield 1 mg/mL stock solution. Serial two-fold dilutions of the test compounds and reference antibiotics are prepared. 50 μL of the diluted drug solutions are dispensed in wells of microtiter trays (96 well).
(§4) To each of the wells of the microtiter tray, 50 μL of the diluted organism are inoculated to obtain a final inoculum density of ˜5×10^5 cfu/mL. Broth control, compound control and organism control wells are set up.
(§5) MIC testing are done in duplicates
(§6) MIC is defined as the lowest concentration of an antimicrobial agent that prevents visible growth of a microorganism in broth dilution susceptibility test.
(§7) After incubation period, growth of organism in the wells are detected by unaided eye facilitated by a viewing device. The amount of growth in the drug-containing wells are compared with the amount of growth in the organism-control wells.

[2] = test system: S. pneumoniae AUCC488, macrolide & penicillin resistant; experiment: Minimum inhibitory concentration (MIC), broth microdilution, AUCC488; format: cell-based, Streptococcus pneumoniae
Experimental: as §1, §2, §3, §4, §5, §6, §7

[3] = test system: S. pneumoniae AUCC489, macrolide & penicillin resistant; experiment: Minimum inhibitory concentration (MIC), broth microdilution, AUCC489; format: cell-based, Streptococcus pneumoniae
Experimental: as §1, §2, §3, §4, §5, §6, §7

[4] = test system: S. pneumoniae ATCC 49619 (CLSI QC strain); experiment: Minimum inhibitory concentration (MIC), broth microdilution, QC strain; format: cell-based, Streptococcus pneumoniae; conditions: MIC in duplicates
Experimental: as §1, §2, §3, §4, §5, §6, §7

[5] = test system: S. pneumoniae AUCC483, macrolide resistant & penicillin sensitive; experiment: Minimum inhibitory concentration (MIC), broth microdilution, AUCC483; format: cell-based, Streptococcus pneumoniae
Experimental: as §1, §2, §3, §4, §5, §6, §7

CYP3A4 = CYP3A4 (Homo sapiens, UniProt P08684); experiment: Cytochrome P4503A4 inhibition assay, human liver microsomes, LC-MS/MS probe substrate method; conditions: for IC50: human liver microsomes 0.1 mg/mL, 10 min; for CYP3A4 inhibition in comparison with solithromycin and ketoconazole: summary of Table 1
Experimental: Cytochrome P4503A4 Inhibition Assay for Determining IC50
The potential of the compound to inhibit CYP 3A4 was tested by the LC-MS/MS based probe substrate method using human liver microsomes. Midazolam or testosterone, which are metabolized to hydroxymidazolam or hydroxytestosterone by CYP 3A4, were the probe substrates used. […] NADPH was added as the cofactor. […] After incubation for ten minutes, the amount of 1-hydroxymidazolam or 6β-hydroxyltestosterone formed was determined by LC-MS/MS method as a measure of enzyme activity. Percent inhibition of enzyme activity was calculated based on the amount of metabolites (1-hydroxymidazolam or 6β-hydroxyltestosterone) formed for each sample relative to the basal control and plotted in a curve versus the compound concentration to obtain the IC50.

[6] = read-out: IC50 CYP3A4 (midazolam), 5 μM midazolam
[7] = read-out: IC50 CYP3A4 (testosterone), 50 μM testosterone

CYP3A4, sequence (P08684 whole entry): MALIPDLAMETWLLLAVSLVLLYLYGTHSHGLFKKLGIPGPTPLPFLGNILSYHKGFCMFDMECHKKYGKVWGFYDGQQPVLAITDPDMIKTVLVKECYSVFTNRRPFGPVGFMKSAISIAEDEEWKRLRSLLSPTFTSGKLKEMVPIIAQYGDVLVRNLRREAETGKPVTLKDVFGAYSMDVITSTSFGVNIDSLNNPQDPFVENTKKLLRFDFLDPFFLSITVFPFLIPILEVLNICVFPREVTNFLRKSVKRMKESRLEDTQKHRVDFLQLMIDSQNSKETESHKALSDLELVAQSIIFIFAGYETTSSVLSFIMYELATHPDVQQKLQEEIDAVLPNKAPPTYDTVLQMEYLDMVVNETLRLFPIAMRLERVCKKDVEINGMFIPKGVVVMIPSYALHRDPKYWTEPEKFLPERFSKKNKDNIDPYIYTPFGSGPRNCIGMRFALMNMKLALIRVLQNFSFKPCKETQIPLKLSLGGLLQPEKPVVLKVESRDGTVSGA

| Compound | MIC Strep. Pneumoniae AUCC 479 penS, macS [1] [µg/mL] | MIC Strep. Pneumoniae AUCC 488 penR, macR M or iMLS [2] [µg/mL] | MIC Strep. Pneumoniae AUCC 489 penR, macR cMLS [3] [µg/mL] | MIC Strep. Pneumoniae ATCC49619 QC strain [4] [µg/mL] | MIC Strep. Pneumoniae AUCC 483 penS, macR cMLS [5] [µg/mL] | IC50 (CYP3A4; [6]) [µM] | CYP3A4 inhibition in comparison with solithromycin and ketoconazole (CYP3A4) | MIC ([4]; Streptococcus pneumoniae, ATCC49619 QC strain, read-out: MIC Strep. Pneumoniae ATCC49619 QC strain) [µg/mL] | IC50 (CYP3A4; [7]) [µM] |
| --- | --- | --- | --- | --- | --- | --- | --- | --- | --- |
| (3aS,4R,7R,9R,10R,11R,13R,15R,15aR)-10-{[(2S,3R,4S,6R)-4-(dimethylamino)-3-hydroxy-6-methyloxan-2-yl]oxy}-4-ethyl-1-{2-[ethyl(methyl)amino]ethyl}-3a,7,9,11,13,15-hexamethyl-11-{[(2E)-3-(quinolin-3-yl)prop-2-en-1-yl]oxy}-tetradecahydro-1H-oxacyclotetradeca[4,3-d][1,3]oxazole-2,6,8,14-tetrone [Compound 13G] | 0.03 to 0.06 | 0.5 to 1 | 0.5 to 1 | 0.12 to 0.25 | 1 to 2 | 8.8 | lower IC50 inhibition of CYP3A4 inhibition |  |  |
| CC[C@H]1OC(=O)[C@H](C)[C@@H](O[C@H]2C[C@@](C)(OC)[C@@H](O)[C@H](C)O2)[C@H](C)[C@@H](O[C@@H]2O[C@H](C)C[C@H](N(C)C)[C@H]2O)[C@](C)(O)C[C@@H](C)C(=O)[C@H](C)[C@@H](O)[C@]1(C)O [erythromycin, reference compound] | 0.03 to 0.06 | 8 to 16 | 8 to 32 |  | 64 (≈ 87.2 µM) |  |  | 0.03 to 0.06 (≈ 0.0409 to 0.0818 µM) |  |
| (3aS,4R,7R,9R,10R,11R,13R,15R,15aR)-1-[3-(azetidin-1-yl)propyl]-10-{[(2S,3R,4S,6R)-4-(dimethylamino)-3-hydroxy-6-methyloxan-2-yl]oxy}-4-ethyl-3a,7,9,11,13,15-hexamethyl-11-{[(2E)-3-(quinolin-3-yl)prop-2-en-1-yl]oxy}-tetradecahydro-1H-oxacyclotetradeca[4,3-d][1,3]oxazole-2,6,8,14-tetrone [Compound 13M] | 0.015 to 0.03 | 0.5 to 1 | 0.25 to 0.5 | 0.03 to 0.06 | 0.25 to 0.5 |  | lower IC50 inhibition of CYP3A4 inhibition |  | 10.3 |
| (3aS,4R,7R,9R,10R,11R,13R,15R,15aR)-10-{[(2S,3R,4S,6R)-4-(dimethylamino)-3-hydroxy-6-methyloxan-2-yl]oxy}-1-[2-(dimethylamino)ethyl]-4-ethyl-3a,7,9,11,13,15-hexamethyl-11-{[(2E)-3-(quinolin-3-yl)prop-2-en-1-yl]oxy}-tetradecahydro-1H-oxacyclotetradeca[4,3-d][1,3]oxazole-2,6,8,14-tetrone [Compound 13F, reference compound] | 0.0015 | 0.25 | 0.12 to 0.25 | 0.015 to 0.06 | 0.25 to 0.5 | 1.1 |  |  |  |
| (3aS,4R,7R,9R,10R,11R,13R,15R,15aR)-10-{[(2S,3R,4S,6R)-4-(dimethylamino)-3-hydroxy-6-methyloxan-2-yl]oxy}-4-ethyl-3a,7,9,11,13,15-hexamethyl-1-{2-[(2S)-1-methylpyrrolidin-2-yl]ethyl}-11-{[(2E)-3-(quinolin-3-yl)prop-2-en-1-yl]oxy}-tetradecahydro-1H-oxacyclotetradeca[4,3-d][1,3]oxazole-2,6,8,14-tetrone [Compound 13Q] | 0.015 to 0.03 | 0.5 to 1 | 0.12 to 0.25 | 0.03 to 0.06 | 0.12 to 0.25 |  | lower IC50 inhibition of CYP3A4 inhibition |  | 4.8 |
| CC[C@H]1OC(=O)[C@H](C)C(=O)[C@H](C)[C@@H](O[C@@H]2O[C@H](C)C[C@H](N(C)C)[C@H]2O)[C@](C)(OC/C=C/c2cnc3ccccc3c2)C[C@@H](C)C(=O)[C@H](C)[C@H]2N(CCOC)C(=O)O[C@]12C [Compound 13E, (3aS,4R,7R,9R,10R,11R,13R,15R,15aR)-10-{[(2S,3R,4S,6R)-4-(dimethylamino)-3-hydroxy-6-methyloxan-2-yl]oxy}-4-ethyl-1-(2-methoxyethyl)-3a,7,9,11,13,15-hexamethyl-11-{[(2E)-3-(quinolin-3-yl)prop-2-en-1-yl]oxy}-tetradecahydro-1H-oxacyclotetradeca[4,3-d][1,3]oxazole-2,6,8,14-tetrone] | 0.03 to 0.06 | 0.25 to 0.5 | >4 | 0.06 to 0.12 | >4 |  |  |  |  |
| (3aS,4R,7R,9R,10R,11R,13R,15R,15aR)-10-{[(2S,3R,4S,6R)-4-(dimethylamino)-3-hydroxy-6-methyloxan-2-yl]oxy}-4-ethyl-1-{[(2S)-1-ethylpyrrolidin-2-yl]methyl}-3a,7,9,11,13,15-hexamethyl-11-{[(2E)-3-(quinolin-3-yl)prop-2-en-1-yl]oxy}-tetradecahydro-1H-oxacyclotetradeca[4,3-d][1,3]oxazole-2,6,8,14-tetrone [Compound 13C] | 0.03 | 0.5 | 0.5 to 1 | 0.06 to 0.12 | 0.5 to 1 | 1.8 | lower IC50 inhibition of CYP3A4 inhibition |  |  |
| (3aS,4R,7R,9R,10R,11R,13R,15R,15aR)-10-{[(2S,3R,4S,6R)-4-(dimethylamino)-3-hydroxy-6-methyloxan-2-yl]oxy}-4-ethyl-1-{[(2R)-1-ethylpyrrolidin-2-yl]methyl}-3a,7,9,11,13,15-hexamethyl-11-{[(2E)-3-(quinolin-3-yl)prop-2-en-1-yl]oxy}-tetradecahydro-1H-oxacyclotetradeca[4,3-d][1,3]oxazole-2,6,8,14-tetrone [Compound 13D] | 0.015 to 0.03 | 0.25 to 0.5 | 0.12 to 0.25 | 0.03 to 0.06 | 0.25 to 0.5 | 2.9 | lower IC50 inhibition of CYP3A4 inhibition |  |  |
| (3aS,4R,7R,9R,10R,11R,13R,15R,15aR)-10-{[(2S,3R,4S,6R)-4-(dimethylamino)-3-hydroxy-6-methyloxan-2-yl]oxy}-4-ethyl-3a,7,9,11,13,15-hexamethyl-1-[2-(4-methylpiperazin-1-yl)ethyl]-11-{[(2E)-3-(quinolin-3-yl)prop-2-en-1-yl]oxy}-tetradecahydro-1H-oxacyclotetradeca[4,3-d][1,3]oxazole-2,6,8,14-tetrone [Compound 13K] | 0.03 to 0.06 | 1 | 0.5 to 1 | 0.06 to 0.12 | 0.5 to 1 | 6.5 | lower IC50 inhibition of CYP3A4 inhibition |  |  |
| CC[C@H]1OC(=O)[C@H](C)C(=O)[C@H](C)[C@@H](O[C@@H]2O[C@H](C)C[C@H](N(C)C)[C@H]2O)[C@](C)(OC/C=C/c2cnc3ccccc3c2)C[C@@H](C)C(=O)[C@H](C)[C@H]2N(CC#N)C(=O)O[C@]12C [Compound 13H, 2-[(3aS,4R,7R,9R,10R,11R,13R,15R,15aR)-10-{[(2S,3R,4S,6R)-4-(dimethylamino)-3-hydroxy-6-methyloxan-2-yl]oxy}-4-ethyl-3a,7,9,11,13,15-hexamethyl-2,6,8,14-tetraoxo-11-{[(2E)-3-(quinolin-3-yl)prop-2-en-1-yl]oxy}-tetradecahydro-1H-oxacyclotetradeca[4,3-d][1,3]oxazol-1-yl]acetonitrile] | 0.008 to 0.015 | 0.25 to 1 | 0.25 to 1 | 0.03 to 0.06 | 2 to 4 | 1.9 | lower IC50 inhibition of CYP3A4 inhibition |  |  |

Source: patent publication US10717757B2, “Ketolides having antibacterial activity” (BIOPHARMATI SA, priority 2016, dated 2020)
